Source: patent US11807625B2, “Capsid inhibitors for the prevention of HIV” (Gilead Sciences, Inc., priority 2019, dated 2023)
Values joined by “and” are separate entries in the source; they are usually repeats but may differ in a detail not shown here. Identical values can stand only once.

Assay: Plasma concentration vs. time profile of Compound Ib in rhesus after single subcutaneous dose (SHIV challenge study)
Format: in vivo, rhesus macaques

CC(C)(C#Cc1ccc(-c2ccc(Cl)c3c(NS(=O)(=O)C4CC4)nn(CC(F)F)c23)c([C@H](Cc2cc(F)cc(F)c2)NC(=O)Cn2nc(C(F)F)c3c2C(F)(F)[C@@H]2C[C@H]32)n1)S(C)(=O)=O [Compound Ib, N—((S)-1-(3-(4-chloro-3-(cyclopropanesulfonamido)-1-(2,2-difluoroethyl)-1H-indazol-7-yl)-6-(3-methyl-3-(methylsulfonyl)but-1-yn-1-yl)pyridin-2-yl)-2-(3,5-difluorophenyl)ethyl)-2-((3b S,4aR)-3-(difluoromethyl)-5,5-difluoro-3b,4,4a,5-tetrahydro-1H-cyclopropa[3,4]cyclopenta[1,2-c]pyrazol-1-yl)acetamide]
Plasma Compound Ib Concentrations (150 mg/kg SC day 0, individual animals, study week 1, SHIV dose 10 x TCID50): 3112 nM and 2516 nM and 762 nM and 882 nM
Plasma Compound Ib Concentrations (150 mg/kg SC day 0, individual animals, study week 2, SHIV dose 10 x TCID50): 2108 nM and 2027 nM and 1059 nM and 1219 nM
Plasma Compound Ib Concentrations (150 mg/kg SC day 0, individual animals, study week 3, SHIV dose 10 x TCID50): 750 nM and 1371 nM and 334 nM and 209 nM
Plasma Compound Ib Concentrations (150 mg/kg SC day 0, individual animals, study week 4, SHIV dose 10 x TCID50): 538 nM and 448 nM and 225 nM and 165 nM
Plasma Compound Ib Concentrations (150 mg/kg SC day 0, individual animals, study week 5, SHIV dose 10 x TCID50): 333 nM and 449 nM and 141 nM and 113 nM
Plasma Compound Ib Concentrations (150 mg/kg SC day 0, individual animals, study week 6, SHIV dose 10 x TCID50): 164 nM and 313 nM and 82 nM and 78 nM
Plasma Compound Ib Concentrations (150 mg/kg SC day 0, individual animals, study week 7, SHIV dose 10 x TCID50): 139 nM and 250 nM and 69 nM and 46 nM
Plasma Compound Ib Concentrations (150 mg/kg SC day 0, individual animals, study week 8, SHIV dose 10 x TCID50): 118 nM and 160 nM and 80 nM and 56 nM and 82 nM
Plasma Compound Ib Concentrations (150 mg/kg SC day 0, individual animals, study week 9, SHIV dose 33 x TCID50): 54 nM and 140 nM and 58 nM and 14 nM
Plasma Compound Ib Concentrations (300 mg/kg SC day 0, individual animals, study week 1, SHIV dose 10 x TCID50): 5528 nM and 3174 nM and 2251 nM and 1572 nM and 7818 nM and 2215 nM and 1944 nM
Plasma Compound Ib Concentrations (300 mg/kg SC day 0, individual animals, study week 2, SHIV dose 10 x TCID50): 1944 nM and 2466 nM and 1332 nM and 2066 nM and 3983 nM and 1949 nM and 1830 nM
Plasma Compound Ib Concentrations (300 mg/kg SC day 0, individual animals, study week 3, SHIV dose 10 x TCID50): 942 nM and 1003 nM and 894 nM and 508 nM and 1654 nM and 632 nM and 742 nM
Plasma Compound Ib Concentrations (300 mg/kg SC day 0, individual animals, study week 4, SHIV dose 10 x TCID50): 863 nM and 664 nM and 530 nM and 359 nM and 725 nM and 416 nM and 362 nM
Plasma Compound Ib Concentrations (300 mg/kg SC day 0, individual animals, study week 5, SHIV dose 10 x TCID50): 402 nM and 487 nM and 395 nM and 266 nM and 523 nM and 268 nM and 377 nM
Plasma Compound Ib Concentrations (300 mg/kg SC day 0, individual animals, study week 6, SHIV dose 10 x TCID50): 370 nM and 282 nM and 382 nM and 161 nM and 242 nM and 273 nM and 350 nM
Plasma Compound Ib Concentrations (300 mg/kg SC day 0, individual animals, study week 7, SHIV dose 10 x TCID50): 180 nM (2×) and 261 nM and 339 nM and 132 nM and 158 nM and 307 nM
Plasma Compound Ib Concentrations (300 mg/kg SC day 0, individual animals, study week 8, SHIV dose 10 x TCID50): 209 nM and 240 nM and 319 nM and 140 nM and 378 nM and 155 nM and 226 nM
Plasma Compound Ib Concentrations (300 mg/kg SC day 0, individual animals, study week 9, SHIV dose 33 x TCID50): 127 nM and 131 nM and 83 nM and 88 nM and 177 nM and 104 nM and 122 nM
concentration at 12 weeks (both sexes, rhesus monkey, plasma, subcutaneous, 300 mg/kg, 300 mg/kg SC day 0, individual animals, study week 12, SHIV dose 100 x TCID50, read-out: Plasma Compound Ib Concentrations): 83 nM
concentration at 15 weeks (both sexes, rhesus monkey, plasma, subcutaneous, 300 mg/kg, 300 mg/kg SC day 0, individual animals, study week 15, SHIV dose 100 x TCID50, read-out: Plasma Compound Ib Concentrations): 45 nM
